The results in this text go back to BindingDB's records for doi:10.1016/S0960-894X(01)80152-9 (1994).

Experiment [1] concerns the target Arachidonate 5-lipoxygenase (Cavia porcellus). Nature of the experiment: In vitro 5-lipoxygenase inhibition in guinea pig PMNs was determined based on 5-hydroxyeicosapentaenoic acid (5-HETE) production.
Experiment [2] has the same target. As to the kind of experiment: In vitro 5-lipoxygenase inhibition in guinea pig PMNs was determined based on LTB4 production.

Molecules are shown by their SMILES.

Broadly, the IC50 is the concentration needed to halve the response being measured.

For `NC(=O)N(O)CC1=Cc2cc(Oc3ccc(F)cc3)ccc2OCC1` [N-{[7-(4-fluorophenoxy)-2,3-dihydro-1-benzoxepin-4-yl]methyl}-N-hydroxyurea], the IC50 worked out at 91 nM in experiment [1] and 98 nM in experiment [2].

Turning to `NC(=O)N(O)CC1=Cc2cc(Oc3ccccc3)ccc2OCC1` [N-hydroxy-N-[(7-phenoxy-2,3-dihydro-1-benzoxepin-4-yl)methyl]urea], the results for the half-inhibitory concentration (IC50) in experiment [1] and in experiment [2] were 89 nM and 91 nM, respectively.

`CNC(=O)N(O)CC1=Cc2cc(Oc3ccc(F)cc3)ccc2OCC1` [N-{[7-(4-fluorophenoxy)-2,3-dihydro-1-benzoxepin-4-yl]methyl}-N-hydroxy-N'-methylurea]: the 50% inhibitory concentration (IC50) amounted to 100 nM in experiment [1] and 130 nM in experiment [2].

Take `NC(=O)N(O)CC1=Cc2cc(Oc3ccccc3)ccc2SCC1` [N-hydroxy-N-[(7-phenoxy-2,3-dihydro-1-benzothiepin-4-yl)methyl]urea]: the figures for the IC50 in experiment [1] and in experiment [2] were 120 nM and 130 nM, respectively.

Turning to `NC(=O)N(O)CC1=Cc2ccc(Oc3ccccc3)cc2OCC1` [N-hydroxy-N-[(8-phenoxy-2,3-dihydro-1-benzoxepin-4-yl)methyl]urea], the 50% inhibitory concentration (IC50) in experiment [1] is 180 nM; in experiment [2], 210 nM.
